The source made the active and inactive calls. The rule behind the calls is not given here.
Columns and labels:
[1] = molecular target: Sodium-dependent serotonin transporter (Homo sapiens) (UniProt P31645); conditions: Compound concentration 10.0 uM
[2] = molecular target: Cytochrome P450 11B2, mitochondrial (Homo sapiens, UniProt P19099); assay: Assay using V79 cell lines (CYP11B2); assay type: cell-based
[3] = molecular target: T1, Alpha-2B adrenergic receptor (Homo sapiens) (UniProt P18089)
T1 sequence (whole entry): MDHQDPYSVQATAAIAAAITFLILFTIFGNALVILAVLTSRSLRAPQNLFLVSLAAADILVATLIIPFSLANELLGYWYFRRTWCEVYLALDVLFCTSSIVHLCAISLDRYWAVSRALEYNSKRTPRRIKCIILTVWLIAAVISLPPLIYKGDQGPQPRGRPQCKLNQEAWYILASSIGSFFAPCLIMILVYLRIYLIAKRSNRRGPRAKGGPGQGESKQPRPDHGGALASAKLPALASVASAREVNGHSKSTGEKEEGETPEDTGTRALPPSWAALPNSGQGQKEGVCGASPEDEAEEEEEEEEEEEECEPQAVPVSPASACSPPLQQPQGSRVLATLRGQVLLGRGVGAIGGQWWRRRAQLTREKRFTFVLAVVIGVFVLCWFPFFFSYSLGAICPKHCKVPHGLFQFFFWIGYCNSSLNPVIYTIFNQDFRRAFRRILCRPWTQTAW

[4] = species: Rattus norvegicus; assay: Glutamate, NMDA, Polyamine Eurofins-Panlabs radioligand binding assay; assay type: protein-complex assay; set-up: ligand concentration 2 nM; conditions: Compound concentration 10.0 uM
[5] = species: Homo sapiens; assay: Inhibition of Nicotinic Acetylcholine at compound concentration of 10.0 uM in the Eurofins-Panlabs radioligand binding assay (Eurofins_assay_258590); assay type: protein-complex assay; conditions: Compound concentration 10.0 uM
[6] = molecular target: D(1A) dopamine receptor (Homo sapiens) (UniProt P21728); conditions: Compound concentration 10.0 uM
D(1A) dopamine receptor (Homo sapiens), sequence (P21728 whole entry): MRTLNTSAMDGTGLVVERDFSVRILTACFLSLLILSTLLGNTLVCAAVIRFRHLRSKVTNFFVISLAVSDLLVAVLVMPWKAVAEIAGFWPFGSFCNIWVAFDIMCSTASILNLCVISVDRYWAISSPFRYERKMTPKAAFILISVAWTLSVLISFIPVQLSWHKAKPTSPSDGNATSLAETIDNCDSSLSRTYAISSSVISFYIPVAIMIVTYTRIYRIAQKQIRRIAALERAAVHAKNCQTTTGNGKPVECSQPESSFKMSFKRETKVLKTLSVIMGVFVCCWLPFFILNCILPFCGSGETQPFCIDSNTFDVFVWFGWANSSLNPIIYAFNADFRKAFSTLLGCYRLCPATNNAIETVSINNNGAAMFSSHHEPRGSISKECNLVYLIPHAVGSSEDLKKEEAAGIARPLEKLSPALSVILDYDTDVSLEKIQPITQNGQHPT

[7] = species: Rattus norvegicus; assay: GABAA, Ro-15-1788, Hippocampus Eurofins-Panlabs radioligand binding assay; set-up: ligand concentration 1 nM; conditions: Compound concentration 10.0 uM
[8] = molecular target: Muscarinic acetylcholine receptor M4 (Homo sapiens) (UniProt P08173); conditions: Compound concentration 10.0 uM
Muscarinic acetylcholine receptor M4 (Homo sapiens), sequence (P08173 whole entry): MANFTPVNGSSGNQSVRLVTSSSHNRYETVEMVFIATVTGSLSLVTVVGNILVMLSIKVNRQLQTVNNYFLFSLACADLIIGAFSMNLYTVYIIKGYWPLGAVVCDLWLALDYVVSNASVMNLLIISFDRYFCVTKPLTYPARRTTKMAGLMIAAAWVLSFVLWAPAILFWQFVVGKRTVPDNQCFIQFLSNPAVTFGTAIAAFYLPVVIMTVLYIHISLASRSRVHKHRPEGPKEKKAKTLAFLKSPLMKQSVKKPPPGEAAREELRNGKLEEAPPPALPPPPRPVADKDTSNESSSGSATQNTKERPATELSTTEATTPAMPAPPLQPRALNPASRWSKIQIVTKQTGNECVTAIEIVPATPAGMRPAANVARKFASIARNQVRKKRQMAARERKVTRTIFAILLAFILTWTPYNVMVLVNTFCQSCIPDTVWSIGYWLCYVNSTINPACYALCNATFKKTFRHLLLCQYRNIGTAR

[9] = molecular target: Adenosine receptor A2a (Homo sapiens) (UniProt P29274); conditions: Compound concentration 10.0 uM
Adenosine receptor A2a (Homo sapiens), sequence (P29274 whole entry): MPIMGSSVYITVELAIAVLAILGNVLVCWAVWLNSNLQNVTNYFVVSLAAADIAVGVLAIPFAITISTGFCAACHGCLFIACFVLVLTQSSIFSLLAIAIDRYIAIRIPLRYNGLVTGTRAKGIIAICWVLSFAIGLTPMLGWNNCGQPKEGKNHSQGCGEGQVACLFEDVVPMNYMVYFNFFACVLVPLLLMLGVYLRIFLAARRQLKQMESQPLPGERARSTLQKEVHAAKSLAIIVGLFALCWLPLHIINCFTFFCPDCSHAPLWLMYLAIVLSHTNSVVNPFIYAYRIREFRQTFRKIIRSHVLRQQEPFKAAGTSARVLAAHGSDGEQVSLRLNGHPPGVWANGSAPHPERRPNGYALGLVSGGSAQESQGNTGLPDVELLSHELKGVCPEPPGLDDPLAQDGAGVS

[10] = molecular target: T2, Alpha-2B adrenergic receptor (Homo sapiens, UniProt P18089); assay: GPCRScan assay: inhibition of Alpha2B; set-up: radioligand conc. used [nm] 1.5 – 2.0, parental cells HEKT
T2 sequence (P18089 whole entry): T1 sequence (whole entry)

[11] = molecular target: Mu-type opioid receptor (Homo sapiens) (UniProt P35372); conditions: Compound concentration 10.0 uM
[12] = molecular target: GABA-A receptor; anion channel (Rattus norvegicus) (UniProt O09028+P15431+P18506+P18508+P19969+P20236+P23574+P23576+P28471+P28473+P30191+P62813+P63079+P63138+Q91ZM7+Q9ES14); conditions: Compound concentration 10.0 uM
[13] = molecular target: Estrogen receptor (Homo sapiens) (UniProt P03372); conditions: Compound concentration 10.0 uM
Estrogen receptor (Homo sapiens), sequence (P03372 whole entry): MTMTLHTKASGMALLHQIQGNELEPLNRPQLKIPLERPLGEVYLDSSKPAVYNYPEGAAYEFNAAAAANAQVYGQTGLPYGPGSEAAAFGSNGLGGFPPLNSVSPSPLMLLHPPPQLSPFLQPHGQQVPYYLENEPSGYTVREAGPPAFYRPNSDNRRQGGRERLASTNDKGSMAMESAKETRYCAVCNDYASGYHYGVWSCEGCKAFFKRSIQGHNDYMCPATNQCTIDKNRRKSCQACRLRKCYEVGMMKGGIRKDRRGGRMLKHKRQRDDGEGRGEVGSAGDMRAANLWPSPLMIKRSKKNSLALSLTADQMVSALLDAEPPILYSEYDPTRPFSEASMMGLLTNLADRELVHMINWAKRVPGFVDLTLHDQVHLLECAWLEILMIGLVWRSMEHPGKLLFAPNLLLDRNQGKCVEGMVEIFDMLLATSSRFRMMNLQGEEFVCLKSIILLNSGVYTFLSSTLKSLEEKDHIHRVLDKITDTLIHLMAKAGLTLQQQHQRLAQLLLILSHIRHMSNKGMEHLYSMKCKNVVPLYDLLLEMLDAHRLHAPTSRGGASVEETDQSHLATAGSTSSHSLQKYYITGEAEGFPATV

[14] = molecular target: Alpha-2A adrenergic receptor (Homo sapiens, UniProt P08913); assay: GPCRScan assay: inhibition of Alpha2A; set-up: radioligand conc. used [nm] 1.0 – 3.0, parental cells stable MDCK
Alpha-2A adrenergic receptor, sequence (P08913 whole entry): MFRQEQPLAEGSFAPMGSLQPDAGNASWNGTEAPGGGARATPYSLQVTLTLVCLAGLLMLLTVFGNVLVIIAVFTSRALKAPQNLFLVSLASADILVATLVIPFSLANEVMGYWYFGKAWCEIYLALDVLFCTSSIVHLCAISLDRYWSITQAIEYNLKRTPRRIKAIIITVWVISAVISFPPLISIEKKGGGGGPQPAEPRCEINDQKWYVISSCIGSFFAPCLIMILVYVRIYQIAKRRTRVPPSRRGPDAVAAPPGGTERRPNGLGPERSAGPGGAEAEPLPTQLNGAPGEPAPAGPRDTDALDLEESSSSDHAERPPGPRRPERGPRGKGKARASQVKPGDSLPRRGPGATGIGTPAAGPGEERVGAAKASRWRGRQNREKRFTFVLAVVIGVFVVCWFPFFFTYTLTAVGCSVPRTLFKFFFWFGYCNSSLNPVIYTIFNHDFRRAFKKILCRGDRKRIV

[15] = molecular target: T3, Beta-1 adrenergic receptor (Homo sapiens, UniProt P08588); assay: Panlabs assay (ADRB1); set-up: compound concentration 10 uM
Target sequence in this assay (P08588 whole entry): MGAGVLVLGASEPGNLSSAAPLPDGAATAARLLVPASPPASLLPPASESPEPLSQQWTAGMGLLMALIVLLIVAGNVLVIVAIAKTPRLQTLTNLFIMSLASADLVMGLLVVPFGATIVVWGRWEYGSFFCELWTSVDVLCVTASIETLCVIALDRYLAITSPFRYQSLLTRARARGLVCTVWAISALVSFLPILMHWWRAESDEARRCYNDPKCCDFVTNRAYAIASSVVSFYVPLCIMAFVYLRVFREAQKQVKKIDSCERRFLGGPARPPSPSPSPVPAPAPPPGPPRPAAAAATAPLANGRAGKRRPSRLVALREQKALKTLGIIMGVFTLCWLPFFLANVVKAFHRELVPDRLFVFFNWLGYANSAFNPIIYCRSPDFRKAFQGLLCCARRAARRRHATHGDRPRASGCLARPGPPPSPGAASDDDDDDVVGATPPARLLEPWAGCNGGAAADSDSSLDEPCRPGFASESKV

[16] = molecular target: Cholecystokinin receptor type A (Homo sapiens) (UniProt P32238); assay: Inhibition of Cholecystokinin CCK1 (CCKA) at 10 µM in the Eurofins-Panlabs radioligand binding assay (Eurofins_assay_218020); conditions: Compound concentration 10.0 uM
[17] = molecular target: Alpha-1A adrenergic receptor (Homo sapiens) (UniProt P35348); conditions: Compound concentration 10.0 uM
[18] = molecular target: T4, 5-hydroxytryptamine receptor 2C (Homo sapiens) (UniProt P28335); conditions: Compound concentration 10.0 uM
T4 sequence (whole entry): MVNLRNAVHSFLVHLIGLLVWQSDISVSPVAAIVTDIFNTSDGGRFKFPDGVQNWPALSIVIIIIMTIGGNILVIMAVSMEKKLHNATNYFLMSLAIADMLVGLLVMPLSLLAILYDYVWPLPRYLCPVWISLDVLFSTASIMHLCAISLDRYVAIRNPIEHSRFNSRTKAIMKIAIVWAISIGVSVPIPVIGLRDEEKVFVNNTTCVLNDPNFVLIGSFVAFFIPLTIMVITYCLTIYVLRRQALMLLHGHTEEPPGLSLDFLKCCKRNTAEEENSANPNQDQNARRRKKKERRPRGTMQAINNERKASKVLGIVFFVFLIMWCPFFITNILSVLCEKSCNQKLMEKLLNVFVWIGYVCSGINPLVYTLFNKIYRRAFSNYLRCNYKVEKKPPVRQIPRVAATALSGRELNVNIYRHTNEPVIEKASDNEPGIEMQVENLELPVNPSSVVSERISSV

[19] = molecular target: Gamma-aminobutyric acid type B receptor subunit 1 (Homo sapiens) (UniProt Q9UBS5); conditions: Rattus norvegicus; Compound concentration 10.0 uM
[20] = molecular target: T3, Beta-1 adrenergic receptor; assay: Inhibition of Adrenergic beta1 at compound concentration of 10.0 uM in the Eurofins-Panlabs radioligand binding assay (Eurofins_assay_204010); set-up: ligand concentration 0.03 nM, non-specific ligand with concentration 100 uM S(-)-Propranolol, incubation time 2 h, incubation temperature 25 C
Target sequence in this assay (P08588 whole entry): as the sequence (P08588 whole entry) above

[21] = molecular target: Melanocortin receptor 4 (Homo sapiens) (UniProt P32245); assay: Inhibition of Melanocortin MC4 at 10 µM in the Eurofins-Panlabs radioligand binding assay (Eurofins_assay_251350); set-up: ligand concentration 0.02 nM; conditions: Compound concentration 10.0 uM
Melanocortin receptor 4 (Homo sapiens), sequence (P32245 whole entry): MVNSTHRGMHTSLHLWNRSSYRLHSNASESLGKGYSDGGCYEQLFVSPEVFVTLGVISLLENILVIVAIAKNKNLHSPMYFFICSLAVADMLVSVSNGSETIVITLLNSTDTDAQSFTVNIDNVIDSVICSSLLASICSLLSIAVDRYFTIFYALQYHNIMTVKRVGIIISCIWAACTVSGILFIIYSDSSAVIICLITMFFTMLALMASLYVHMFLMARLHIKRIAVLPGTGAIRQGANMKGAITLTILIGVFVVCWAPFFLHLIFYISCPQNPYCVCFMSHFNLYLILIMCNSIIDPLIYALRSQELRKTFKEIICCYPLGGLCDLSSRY

[22] = molecular target: T2, Alpha-2B adrenergic receptor; assay: Panlabs assay (ADRA2B); set-up: compound concentration 10 uM
[23] = molecular target: T3, Beta-1 adrenergic receptor
Target sequence in this assay (P08588 whole entry, looked up): as the sequence (P08588 whole entry) above

[24] = molecular target: Acetylcholine receptor subunit alpha (Homo sapiens) (UniProt P02708); assay: Inhibition of Nicotinic Acetylcholine D1, Bungarotoxin at 10 µM in the Eurofins-Panlabs radioligand binding assay (Eurofins_assay_258700); conditions: Compound concentration 10.0 uM
Acetylcholine receptor subunit alpha (Homo sapiens), sequence (P02708 whole entry): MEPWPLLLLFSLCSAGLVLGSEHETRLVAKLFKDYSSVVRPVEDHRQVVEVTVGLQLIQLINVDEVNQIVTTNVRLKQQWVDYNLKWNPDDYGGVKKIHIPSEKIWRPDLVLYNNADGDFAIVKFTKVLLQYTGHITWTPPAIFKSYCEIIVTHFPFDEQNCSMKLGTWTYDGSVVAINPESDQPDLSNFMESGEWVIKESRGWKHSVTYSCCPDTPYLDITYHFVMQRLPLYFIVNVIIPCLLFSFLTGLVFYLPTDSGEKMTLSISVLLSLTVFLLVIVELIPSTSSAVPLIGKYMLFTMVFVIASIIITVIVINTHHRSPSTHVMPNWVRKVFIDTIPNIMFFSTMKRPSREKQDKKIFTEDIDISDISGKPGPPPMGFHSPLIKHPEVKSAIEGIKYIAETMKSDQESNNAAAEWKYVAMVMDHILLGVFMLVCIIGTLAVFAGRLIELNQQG

[25] = molecular target: Glutamate receptor ionotropic, kainate (Rattus norvegicus) (UniProt P22756+Q01812+P42260+P42264+Q63273); assay: Inhibition of Glutamate, Kainate at 10 µM in the Eurofins-Panlabs radioligand binding assay (Eurofins_assay_232700); conditions: Compound concentration 10.0 uM
[26] = molecular target: Neuropeptide Y receptor type 1 (Homo sapiens) (UniProt P25929); assay: Inhibition of Neuropeptide Y Y1 at 10 µM in the Eurofins-Panlabs radioligand binding assay (Eurofins_assay_257010); conditions: Compound concentration 10.0 uM
[27] = molecular target: Alpha-2C adrenergic receptor (Homo sapiens, UniProt P18825); assay: GPCRScan assay: inhibition of Alpha2C; set-up: radioligand conc. used [nm] 0.5 – 1.0, parental cells stable MDCK
Alpha-2C adrenergic receptor, sequence (P18825 whole entry): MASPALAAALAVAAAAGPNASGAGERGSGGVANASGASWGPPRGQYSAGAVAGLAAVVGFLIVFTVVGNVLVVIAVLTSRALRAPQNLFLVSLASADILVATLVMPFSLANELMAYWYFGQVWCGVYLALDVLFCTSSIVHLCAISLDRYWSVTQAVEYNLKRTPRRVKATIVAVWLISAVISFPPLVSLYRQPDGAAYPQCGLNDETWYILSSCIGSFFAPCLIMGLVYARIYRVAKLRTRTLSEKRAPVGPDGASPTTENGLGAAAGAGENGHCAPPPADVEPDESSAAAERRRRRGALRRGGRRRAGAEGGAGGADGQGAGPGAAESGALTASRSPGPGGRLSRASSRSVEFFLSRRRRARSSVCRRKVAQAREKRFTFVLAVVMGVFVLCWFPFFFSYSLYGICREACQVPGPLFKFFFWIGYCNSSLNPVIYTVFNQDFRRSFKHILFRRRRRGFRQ

Cytochrome P450 11B2, mitochondrial, sequence (P19099 whole entry): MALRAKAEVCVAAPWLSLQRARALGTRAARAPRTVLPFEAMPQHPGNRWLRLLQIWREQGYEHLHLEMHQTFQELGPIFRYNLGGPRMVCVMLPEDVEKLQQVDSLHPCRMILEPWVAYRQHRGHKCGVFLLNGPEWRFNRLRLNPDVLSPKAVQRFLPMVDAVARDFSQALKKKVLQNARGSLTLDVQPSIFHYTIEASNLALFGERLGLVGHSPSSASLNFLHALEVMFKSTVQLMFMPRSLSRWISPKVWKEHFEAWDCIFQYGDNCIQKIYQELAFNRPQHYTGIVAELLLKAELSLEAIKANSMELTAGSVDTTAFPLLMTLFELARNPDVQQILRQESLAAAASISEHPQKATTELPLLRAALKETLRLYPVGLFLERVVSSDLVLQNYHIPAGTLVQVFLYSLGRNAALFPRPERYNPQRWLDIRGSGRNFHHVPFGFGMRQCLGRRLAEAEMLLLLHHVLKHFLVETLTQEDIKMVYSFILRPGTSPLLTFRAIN

## FC(F)(F)c1ccc2c(c1)nc(-c1cccnc1)n2C1CC1 [MSD-CYP11B2-Negative-control]
[1]
  inhibition: -5.44%
[2]
  IC50: > 10 µM (not active)

## CC(C)(O)c1cncc(-c2nc3ccc(F)cc3n2C2CC2)c1 [MSD-CYP11B2]
[3]; Compound concentration 0.1 uM
  inhibition: 9%
[3]; Compound concentration 1.0 uM
  inhibition: 20%
[3]; Compound concentration 10.0 uM
  inhibition: 65%
[4]
  inhibition: -3%
[5]
  inhibition: -3%
[6]
  inhibition: -1%
[7]
  inhibition: 12%
[8]
  inhibition: -0.57%
[9]
  inhibition: -5%
[10]
  Ki: 1.44 µM
[11]
  inhibition: 7%
[12]
  inhibition: 6.26%
[13]
  inhibition: 1%
[14]
  Ki: 2.61 µM
[15]
  IC50: 9.62 µM
[16]
  inhibition: 4%
[17]
  inhibition: -3.03%
[18]
  inhibition: 11%
[19]
  inhibition: 6%
[20]
  IC50: 9.62 µM
  Ki: 5.55 µM
[21]
  inhibition: -1%
[22]
  IC50: 4.7 µM (active)
[23]; Compound concentration 0.01 uM
  inhibition: 5%
[23]; Compound concentration 0.1 uM
  inhibition: -1%
[23]; Compound concentration 1.0 uM
  inhibition: 9%
[23]; Compound concentration 10.0 uM
  inhibition: 51%
[24]
  inhibition: 0%
[25]
  inhibition: -5%
[26]
  inhibition: 11%
[27]
  Ki: 0.626 µM

— ChEMBL document CHEMBL4507294, “Data for DCP probe MSD-CYP11B2” (2021)
